From US20110293745A1, “AURORA KINASE INHIBITORS” (SUNESIS PHARMACEUTICALS, INC., priority 2008, published 2011)
Read-outs that look alike come from different tables or passages of the source.

Columns and labels:
[1] = Humidity-controlled form conversion; assay type: physicochemical
Procedure: The samples were monitored each week for a total duration of five weeks. Each sample was tested by XRPD, DSC, TGA, and Karl Fisher analysis.

[2] = Dynamic Vapor Sorption (DVS); assay type: physicochemical; conditions: for DVS Result (hygroscopicity): Dynamic Vapor Sorption of crystalline form of Compound 1
Procedure: DVS experiments were carried out on all available forms by first drying the sample at 0% RH and 25° C. until an equilibrium weight was reached or a maximum of four hours. The sample was then subjected to an isothermal (25° C.) adsorption scan from 10 to 90% RH in steps of 10% RH. The sample was allowed to equilibrate to an asymptotic weight at each point for a maximum of four hours. Following adsorption, a desorption scan from […] to 0% RH (at 25° C.) was run in steps of −10% RH again allowing a maximum of four hours for equilibration to an asymptotic weight. The sample was then dried for two hours at 80° C. and the resulting solid analyzed by XRPD.

[3] = Procedure: The solvents were chosen based on differences in polarity and functionality and on their classification according to the International Conference on Harmonization (ICH), with preference given to class II and class III solvents. After each addition of solvent, the vials were visually inspected to assess dissolution and further heated to 55° C. to ensure dissolution.
[4] = Reslurry of Form A in 20 solvents; assay type: physicochemical; conditions: THF, EtOAc, MeCN, acetone, MEK, IPA, dioxane, MTBE, IPAc, heptane, CH2Cl2, toluene; room temperature, two weeks
Procedure: Various amounts of solvents were added to each vial to form slurries which were allowed to stir at room temperature for two weeks. The slurries were then filtered with the help of a gentle nitrogen flow. The samples were further dried in vacuo at room temperature for two hours, except the sample from formamide which was dried in vacuo for about 20 hours.
After two weeks, the samples were filtered and then analyzed by XRPD, DSC, and TGA. Three new forms were found from the slurry studies. These Forms I, K, and L were generated from AcOH, NMP, and DMF, respectively. The slurry samples from other solvents afforded results consistent with the single solvent recrystallizations. […] Forms D, E, G, and H were generated from reslurry experiments in DMA, formamide, methanol, and ethanol, respectively.

HCT 116 p53+/+ = experiment: In vitro combination, HCS cell count assay (CI50); assay type: cell-based, human; conditions: HCT 116 p53+/+ and p53−/−; dependent on ratios or p53 status
Procedure: A combination index compares the concentration of compounds dosed in combination required for a given fractional effect to the concentration of single agent compound required to give the same fractional affect. In this application, the fractional effect is EC50.
The equation above represents the theoretical additive response for two mutually exclusive drugs, and takes into consideration the ratio at which the two compounds are dosed. […].
[…]. High content cell imaging and a cell proliferation assay were used to measure the anti-proliferative effects of the compounds.
HCT 116 cells transfected with p53 RNAi or a control vector were cultured in DMEM, 10% FBS, and 1× antibiotic/antimycotic. Cells were plated in growth medium in black/clear Falcon® 384-well plates. Cells were treated to assess the effects of p53 status, drug dose ratios, and dose schedules. […]. […] All procedures were performed by a Tecan robotic platform.
After overnight growth, cells were treated with compound for a total of 72 hours and incubated at 37° C., 5% CO2. Cells were fixed in 4% formaldehyde and stained with 1:4000 dilution of 10 mg/mL Hoechst 33342. HCS images were captured and data analyzed using the Target Activation application, object count per field parameter, on the ArrayScan VTI instrument (Cellomics, Inc.).

[5] = test system: HCT 116 p53−/− (p53 RNAi); experiment: In vitro combination, HCS cell count assay (CI50); assay type: cell-based, human; conditions: p53−/− HCT 116 cells; high doses of vincristine
Procedure: Cells were plated in growth medium in black/clear Falcon® 384-well plates. Cells were treated to assess the effects of p53 status, drug dose ratios, and dose schedules. […] All procedures were performed by a Tecan robotic platform.

CS(=O)(=O)O.O=C(Nc1cccc(Cl)c1)Nc1ncc(CCNc2ncnc3ccsc23)s1 [A]
KF ([1]; 0% RH, week 1): 0.17 Wt % H2O
TGA Loss ([1]; 0% RH, week 1): 0.0 Wt %
KF ([1]; 0% RH, week 2): <0.1 Wt % H2O
TGA Loss ([1]; 0% RH, week 2): 0.0 Wt %
KF ([1]; 0% RH, week 3): 0.11 Wt % H2O
TGA Loss ([1]; 0% RH, week 3): 0.0 Wt %
KF ([1]; 0% RH, week 4): <0.1 Wt % H2O
TGA Loss ([1]; 0% RH, week 4): 0.0 Wt %
KF ([1]; 0% RH, week 5): 0.1 Wt % H2O
TGA Loss ([1]; 0% RH, week 5): 0.0 Wt %
KF ([1]; 20% RH, week 1): 0.16 Wt % H2O
TGA Loss ([1]; 20% RH, week 1): 0.0 Wt %
KF ([1]; 20% RH, week 2): 0.12 Wt % H2O
TGA Loss ([1]; 20% RH, week 2): 0.0 Wt %
KF ([1]; 20% RH, week 3): 0.11 Wt % H2O
TGA Loss ([1]; 20% RH, week 3): 0.0 Wt %
KF ([1]; 20% RH, week 4): <0.1 Wt % H2O
TGA Loss ([1]; 20% RH, week 4): 0.0 Wt %
KF ([1]; 20% RH, week 5): 0.2 Wt % H2O
TGA Loss ([1]; 20% RH, week 5): 0.0 Wt %
KF ([1]; 52% RH, week 1): 0.29 Wt % H2O
TGA Loss ([1]; 52% RH, week 1): 0.0 Wt %
KF ([1]; 52% RH, week 2): 0.16 Wt % H2O
TGA Loss ([1]; 52% RH, week 2): 0.0 Wt %
KF ([1]; 52% RH, week 3): 0.11 Wt % H2O
TGA Loss ([1]; 52% RH, week 3): 0.0 Wt %
KF ([1]; 75% RH, week 1): 0.12 Wt % H2O
TGA Loss ([1]; 75% RH, week 1): 0.0 Wt %
KF ([1]; 75% RH, week 2): 0.13 Wt % H2O
TGA Loss ([1]; 75% RH, week 2): 0.0 Wt %
KF ([1]; 75% RH, week 3): 0.19 Wt % H2O
TGA Loss ([1]; 75% RH, week 3): 0.0 Wt %
KF ([1]; 75% RH, week 4): <0.1 Wt % H2O
TGA Loss ([1]; 75% RH, week 4): 0.0 Wt %
KF ([1]; 75% RH, week 5): 0.3 Wt % H2O
TGA Loss ([1]; 75% RH, week 5): 0.0 Wt %
KF ([1]; 95% RH, week 1): 1.5 Wt % H2O
TGA Loss ([1]; 95% RH, week 1): 0.1 Wt %
KF ([1]; 95% RH, week 2): 3.2 Wt % H2O
KF ([1]; 95% RH, week 3): 3.7 Wt % H2O
KF ([1]; 95% RH, week 4): 3.5 Wt % H2O
TGA Loss ([1]; 95% RH, week 4): 1.5 Wt %
KF ([1]; 95% RH, week 5): 3.9 Wt % H2O
KF ([1]; starting point, week 0): 0.07 Wt % H2O
TGA Loss ([1]; starting point, week 0): 0.0 Wt %

CS(=O)(=O)O.O=C(Nc1cccc(Cl)c1)Nc1ncc(CCNc2ncnc3ccsc23)s1 [B]
DVS Result (hygroscopicity) [2]: change, low
KF ([1]; 0% RH, week 1): 1.4 Wt % H2O
KF ([1]; 0% RH, week 2): 3.4 Wt % H2O
KF ([1]; 0% RH, week 3): 3.6 Wt % H2O
KF ([1]; 0% RH, week 4): 3.0 Wt % H2O
KF ([1]; 0% RH, week 5): 3.4 Wt % H2O
KF ([1]; 20% RH, week 1): 3.3 Wt % H2O
KF ([1]; 20% RH, week 2): 3.7 Wt % H2O
KF ([1]; 20% RH, week 3): 3.6 Wt % H2O
KF ([1]; 20% RH, week 4): 3.4 Wt % H2O
KF ([1]; 20% RH, week 5): 3.5 Wt % H2O
KF ([1]; 52% RH, week 1): 3.0 Wt % H2O
KF ([1]; 52% RH, week 2): 3.6 Wt % H2O
KF ([1]; 52% RH, week 3): 3.7 Wt % H2O
KF ([1]; 52% RH, week 4): 3.3 Wt % H2O
KF ([1]; 52% RH, week 5): 3.6 Wt % H2O
KF ([1]; 75% RH, week 1): 3.4 Wt % H2O
KF ([1]; 75% RH, week 2): 3.4 Wt % H2O
KF ([1]; 75% RH, week 3): 2.4 Wt % H2O
KF ([1]; 75% RH, week 4): 3.3 Wt % H2O
KF ([1]; 95% RH, week 1): 3.2 Wt % H2O
KF ([1]; 95% RH, week 2): 3.5 Wt % H2O
KF ([1]; 95% RH, week 3): 4.6 Wt % H2O
TGA Loss ([1]; 95% RH, week 3): 3.2 Wt %
KF ([1]; 95% RH, week 4): 3.7 Wt % H2O
KF ([1]; 95% RH, week 5): 4.7 Wt % H2O
KF ([1]; starting point, week 0): 3.0 Wt % H2O

CS(=O)(=O)O.O=C(Nc1cccc(Cl)c1)Nc1ncc(CCNc2ncnc3ccsc23)s1 [E]
DVS Result (water uptake) ([2]; at 90% RH): change, 8.0 wt wt %

CS(=O)(=O)O.O=C(Nc1cccc(Cl)c1)Nc1ncc(CCNc2ncnc3ccsc23)s1 [Form A]
Approximate Solubility Conc. ([3]; Solvent AcOH, Temp RT): >17000 µg/mL
Soluble ([3]; Solvent AcOH, Temp RT): Yes
Approximate Solubility Conc. ([3]; Solvent Acetone, Temp 55): <370 µg/mL
Soluble ([3]; Solvent Acetone, Temp 55): No
Approximate Solubility Conc. ([3]; Solvent DCM, Temp 55): <430 µg/mL
Soluble ([3]; Solvent DCM, Temp 55): No
Approximate Solubility Conc. ([3]; Solvent DMA, Temp RT): >28000 µg/mL
Soluble ([3]; Solvent DMA, Temp RT): Yes
Approximate Solubility Conc. ([3]; Solvent DMF, Temp RT): >9000 µg/mL
Soluble ([3]; Solvent DMF, Temp RT): Yes
Approximate Solubility Conc. ([3]; Solvent Dioxane, Temp 55): <280 µg/mL
Soluble ([3]; Solvent Dioxane, Temp 55): No
Approximate Solubility Conc. ([3]; Solvent EtOAc, Temp 55): <250 µg/mL
Soluble ([3]; Solvent EtOAc, Temp 55): No
Approximate Solubility Conc. ([3]; Solvent EtOH, Temp 55): ~630 µg/mL
Soluble ([3]; Solvent EtOH, Temp 55): Yes
Approximate Solubility Conc. ([3]; Solvent Formamide, Temp RT): >16000 µg/mL
Soluble ([3]; Solvent Formamide, Temp RT): Yes
Approximate Solubility Conc. ([3]; Solvent Heptane, Temp 55): <430 µg/mL
Soluble ([3]; Solvent Heptane, Temp 55): No
Approximate Solubility Conc. ([3]; Solvent IPA, Temp 55): <300 µg/mL
Soluble ([3]; Solvent IPA, Temp 55): Partially
Approximate Solubility Conc. ([3]; Solvent IPAc, Temp 55): <400 µg/mL
Soluble ([3]; Solvent IPAc, Temp 55): No
Approximate Solubility Conc. ([3]; Solvent MEK, Temp 55): <480 µg/mL
Soluble ([3]; Solvent MEK, Temp 55): No
Approximate Solubility Conc. ([3]; Solvent MTBE, Temp 55): <200 µg/mL
Soluble ([3]; Solvent MTBE, Temp 55): No
Approximate Solubility Conc. ([3]; Solvent MeCN, Temp 55): <420 µg/mL
Soluble ([3]; Solvent MeCN, Temp 55): No
Approximate Solubility Conc. ([3]; Solvent MeOH, Temp 55): ~700 µg/mL
Soluble ([3]; Solvent MeOH, Temp 55): Yes
Approximate Solubility Conc. ([3]; Solvent NMP, Temp RT): >14000 µg/mL
Soluble ([3]; Solvent NMP, Temp RT): Yes
Approximate Solubility Conc. ([3]; Solvent THF, Temp 55): <320 µg/mL
Soluble ([3]; Solvent THF, Temp 55): No
Approximate Solubility Conc. ([3]; Solvent Toluene, Temp 55): <330 µg/mL
Soluble ([3]; Solvent Toluene, Temp 55): No
Approximate Solubility Conc. ([3]; Solvent Water, Temp 55): <280 µg/mL
Soluble ([3]; Solvent Water, Temp 55): No
solubility ([3]; in DMF, NMP, DMA, formamide, AcOH): soluble
solubility ([3]; in THF, EtOAc, MeCN, acetone, MEK, IPA, water, dioxane, MTBE, IPAc, heptane, CH2Cl2 and toluene): poor solubility
solubility ([3]; in methanol and ethanol): sparingly soluble
form after reslurry [4]: remained unchanged
form conversion under humidity ([1]; 0, 25, 52, and 75% RH, five weeks): No form conversion
form conversion under humidity ([1]; 95% RH, two weeks): converted to Form B

CS(=O)(=O)O.O=C(Nc1cccc(Cl)c1)Nc1ncc(CCNc2ncnc3ccsc23)s1 [Form B]
form conversion under humidity ([1]; all humidity chambers, five weeks): No form conversion

CS(=O)(=O)O.O=C(Nc1cccc(Cl)c1)Nc1ncc(CCNc2ncnc3ccsc23)s1 [G]
DVS Result (hygroscopicity) [2]: change, low

CC(=O)O[C@@]12CO[C@@H]1C[C@H](O)[C@@]1(C)C(=O)[C@H](O)C3=C(C)[C@@H](OC(=O)[C@H](O)[C@@H](NC(=O)OC(C)(C)C)c4ccccc4)C[C@@](O)([C@@H](OC(=O)c4ccccc4)[C@H]21)C3(C)C [docetaxel]
interaction with Compound 1 in cell count assay (HCT 116 p53+/+): conditional synergies

Nc1ccn([C@@H]2O[C@H](CO)[C@@H](O)C2(F)F)c(=O)n1 [gemcitabine]
interaction with Compound 1 in cell count assay (HCT 116 p53+/+): conditional synergies

CC[C@]1(O)C[C@H]2CN(CCc3c([nH]c4ccccc34)[C@@](C(=O)OC)(c3cc4c(cc3OC)N(C=O)[C@H]3[C@@](O)(C(=O)OC)[C@H](OC(C)=O)[C@]5(CC)C=CCN6CC[C@]43[C@@H]65)C2)C1 [vincristine]
interaction with Compound 1 in cell count assay (HCT 116 p53+/+): conditional synergies
interaction with Compound 1, co-dosed [5]: Statistically significant synergy
